Assays:
human Src kinase = molecular target: T1, human Src kinase (Homo sapiens, UniProt P12931); experiment: Src inhibition assay (A: radioactivity-based or B: spectrophotometric coupled-enzyme assay); type: biochemical; conditions: assay A or B not specified; read-out: Src Activity (Ki class A-C)
T1 construct: full length recombinant human Src kinase; purchased Upstate Biotechnology 14-117; host or cells: baculovirus-infected cells
Experimental: The compounds were evaluated as inhibitors of human Src kinase using either a radioactivity-based assay or spectrophotometric assay.
The compounds were assayed as inhibitors of full length recombinant human Src kinase (from Upstate Biotechnology, cat. no. 14-117) expressed and purified from baculo viral cells. Src kinase activity was monitored by following the incorporation of ^33p from ATP into the tyrosine of a random poly Glu-Tyr polymer substrate of composition, Glu:Tyr=4:1 (Sigma, cat. no. P-0275). The following were the final concentrations of the assay components: 0.05 M HEPES, pH 7.6, 10 mM MgCl2, 2 mM DTT, 0.25 mg/ml BSA, 10 μM ATP (1-2 uCi ^33P-ATP per reaction), 5 mg/ml poly Glu-Tyr, and 1-2 units of recombinant human Src kinase. In a typical assay, all the reaction components with the exception of ATP were pre-mixed and aliquoted into assay plate wells.
Inhibitors dissolved in DMSO were added to the wells to give a final DMSO concentration of 2.5%. The assay plate was incubated at 30° C. for 10 min before initiating the reaction with ^33P-ATP. After 20 min of reaction, the reactions were quenched with 150 μl of 10% trichloroacetic acid (TCA) containing 20 mM Na3PO4. The quenched samples were then transferred to a 96-well filter plate (Whatman, UNI-Filter GF/F Glass Fiber Filter, cat no. 7700-3310) installed on a filter plate vacuum manifold. Filter plates were washed four times with 10% TCA containing 20 mM Na3PO4 and then 4 times with methanol. 200 μl of scintillation fluid was then added to each well. The plates were sealed and the amount of radioactivity associated with the filters was quantified on a TopCount scintillation counter. The radioactivity incorporated was plotted as a function of the inhibitor concentration. The data was fitted to a competitive inhibition kinetics model to get the Ki for the compound.
(§1) The ADP produced from ATP by the human recombinant Src kinase-catalyzed phosphorylation of poly Glu-Tyr substrate was quanitified using a coupled enzyme assay (Fox et al (1998) Protein Sci 7, 2249). In this assay one molecule of NADH is oxidised to NAD for every molecule of ADP produced in the kinase reaction. The disappearance of NADH can be conveniently followed at 340 nm.
(§2) The following were the final concentrations of the assay components: 0.025 M HEPES, pH 7.6, 10 mM MgCl2, 2 mM DTT, 0.25 mg/ml poly Glu-Tyr, and 25 nM of recombinant human Src kinase. Final concentrations of the components of the coupled enzyme system were 2.5 mM phosphoenolpyruvate, 200 μM NADH, 30 μg/ml pyruvate kinase and 10 μg/ml lactate dehydrogenase.
(§3) In a typical assay, all the reaction components with the exception of ATP were pre-mixed and aliquoted into assay plate wells. Inhibitors dissolved in DMSO were added to the wells to give a final DMSO concentration of 2.5%. The assay plate was incubated at 30 C. for 10 min before initiating the reaction with 100 μM ATP. The absorbance change at 340 nm with time, the rate of the reaction, was monitored on a molecular devices plate reader. The data of rate as a function of the inhibitor concentration was fitted to compettive inhibition kinetics model to get the Ki for the compound.

human Lck kinase = human Lck kinase (UniProt P06239); experiment: Lck inhibition assay (A: radioactivity-based or B: spectrophotometric coupled-enzyme assay); type: biochemical; conditions: read-out: Lck Activity (Ki rating)
Experimental: The compounds were evaluated as inhibitors of human Lck kinase using either a radioactivity-based assay or spectrophotometric assay.
The compounds were assayed as inhibitors of full length bovine thymus Lck kinase (from Upstate Biotechnology, cat. no. 14-106) expressed and purified from baculo viral cells. Lck kinase activity was monitored by following the incorporation of ^33p from ATP into the tyrosine of a random poly Glu-Tyr polymer substrate of composition, Glu:Tyr=4:1 (Sigma, cat. no. P-0275). The following were the final concentrations of the assay components: 0.025 M HEPES, pH 7.6, 10 mM MgCl2, 2 mM DTT, 0.25 mg/ml BSA, 10 μM ATP (1-2 μCi ^33P-ATP per reaction), 5 mg/ml poly Glu-Tyr, and 1-2 units of recombinant human […] kinase. In a typical assay, all the reaction components with the exception of ATP were pre-mixed and aliquoted into assay plate wells. Inhibitors dissolved in DMSO were added to the wells to give a final DMSO concentration of 2.5%. The assay plate was incubated at 30 C. for 10 min before initiating the reaction with ^33P-ATP. After 20 min of reaction, the reactions were quenched with 150 μl of 10% trichloroacetic acid (TCA) containing 20 mM Na3PO4. The quenched samples were then transferred to a 96-well filter plate (Whatman, UNI-Filter GF/F Glass Fiber Filter, cat no. 7700-3310) installed on a filter plate vacuum manifold. Filter plates were washed four times with 10% TCA containing 20 mM Na3PO4 and then 4 times with methanol. 200 μl of scintillation fluid was then added to each well. The plates were sealed and the amount of radioactivity associated with the filters was quantified on a TopCount scintillation counter. The radioactivity incorporated was plotted as a function of the inhibitor concentration. The data was fitted to a competitive inhibition kinetics model to get the Ki for the compound.
as §1, with “Lck” for “Src”
as §2, with “DTT, 5” for “DTT, 0.25”, “and 50” for “and 25”, “human Lck” for “human Src”
as §3, with “30°” for “30”, “150” for “100”, “competitive” for “compettive”

T1 sequence (P12931 whole entry): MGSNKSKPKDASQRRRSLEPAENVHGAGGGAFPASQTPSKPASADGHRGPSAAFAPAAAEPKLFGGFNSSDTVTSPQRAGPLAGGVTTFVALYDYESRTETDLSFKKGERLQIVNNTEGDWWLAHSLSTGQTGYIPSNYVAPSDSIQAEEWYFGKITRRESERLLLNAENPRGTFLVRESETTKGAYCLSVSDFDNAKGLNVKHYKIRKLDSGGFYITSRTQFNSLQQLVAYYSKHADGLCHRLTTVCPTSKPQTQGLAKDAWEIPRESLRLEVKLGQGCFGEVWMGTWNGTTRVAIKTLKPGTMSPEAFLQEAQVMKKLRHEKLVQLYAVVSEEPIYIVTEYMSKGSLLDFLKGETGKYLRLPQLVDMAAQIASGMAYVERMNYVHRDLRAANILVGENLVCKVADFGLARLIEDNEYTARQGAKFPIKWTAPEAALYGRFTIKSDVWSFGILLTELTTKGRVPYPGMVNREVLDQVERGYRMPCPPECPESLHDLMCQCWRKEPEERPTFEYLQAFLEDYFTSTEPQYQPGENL

SMILES	Ki (human Src kinase)	Ki (human Lck kinase)
CSc1sc(-c2nc(Nc3cccc(OCCN4CCC(CO)CC4)c3)ncc2C)c(-c2cccnc2)c1C#N [VI-120]	< 100 nM	< 100 nM
N#Cc1c(O)sc(-c2ccnc(Nc3cccc(OCc4ccccc4)c3)n2)c1-c1ccccc1 [IIa-42, 5-[2-(3-Benzyloxy-phenylamino)-pyrimidin-4-yl]-2-hydroxy-4-phenyl-thiophene-3-carbonitrile]	< 100 nM	< 100 nM
CSc1sc(-c2nc(Nc3cccc(OCCCN4CCC[C@H]4CO)c3)ncc2C)c(-c2cccnc2)c1C#N [VI-24]	< 100 nM	< 100 nM
CSc1sc(-c2nc(Nc3cccc(OCCCN4CCOCC4)c3)ncc2C)c(-c2cccnc2)c1C#N [VI-117]	100 to 1000 nM	100 to 1000 nM
COCCNCCCOc1cccc(Nc2ncc(C)c(-c3sc(SC)c(C#N)c3-c3cccnc3)n2)c1 [VI-20]	< 100 nM	< 100 nM
CSc1sc(-c2nc(Nc3cccc(OCCNCCO)c3)ncc2C)c(-c2cccnc2)c1C#N [VI-119]	100 to 1000 nM	< 100 nM
CSc1sc(-c2nc(Nc3cccc(OCCCN4CCNCC4)c3)ncc2C)c(-c2cccnc2)c1C#N [VI-118]	100 to 1000 nM	< 100 nM
CCNc1sc(-c2ccnc(Nc3cccc(OC)c3)n2)c(-c2ccccc2)c1C(=O)OCC [IIa-90, 2-Ethylamino-5-[2-(3-methoxy-phenylamino)-pyrimidin-4-yl]-4-phenyl-thiophene-3-carboxylic acid ethyl ester]	> 1000 nM	100 to 1000 nM
CSc1sc(-c2ccnc(Nc3cccc(NC(=O)CCCNC(C)=O)c3)n2)c(-c2cccnc2)c1C#N [VI-130]	< 100 nM	< 100 nM

More lines, now with the values ahead:

Ki (human Src kinase)	Ki (human Lck kinase)	SMILES
< 100 nM	< 100 nM	CSc1sc(-c2ccnc(Nc3cccc(OCCCNCCO)c3)n2)c(-c2cccc(O)c2)c1C#N [VI-134]
< 100 nM	< 100 nM	CSc1sc(-c2ccnc(Nc3cccc(OCCCNCCCO)c3)n2)c(-c2cccc(OCc3ccccc3)c2)c1C#N [VI-133]
< 100 nM	< 100 nM	CCCCS(=O)(=O)Nc1cccc(Nc2nccc(-c3sc(SC)c(C#N)c3-c3cccnc3)n2)c1 [VI-141]
100 to 1000 nM	< 100 nM	CSc1sc(-c2ccnc(Nc3cccc(OCCCNCCO)c3)n2)c(-c2cccc(OCc3ccccc3)c2)c1C#N [VI-132]
< 100 nM	< 100 nM	CSc1sc(-c2ccnc(Nc3cccc(OCCCNCCCO)c3)n2)c(-c2cccc(O)c2)c1C#N [VI-135]
